# From patent publication US8455397B2, “Penoxsulam as a turfgrass, vineyard and orchard floor herbicide” (Dow AgroSciences, LLC, priority 2005, dated 2013)
# What was measured:
# [1] = system: barnyardgrass (ECHCG); assay: Pre-emergence weed nursery field study; assay type: in vivo, Echinochloa crus-galli; settings: weed nursery in the field, 27 Days After Application
# Method: Field studies were conducted in a non-fumigated weed nursery trial. Weed species were planted in single strips with a row planter at 36 centimeter spacing. Plot size was 3.05×9.2 meters, 4 replicate plots per treatment. Weed species were seeded at appropriate depths and later the same day pre-emergent applications were made to the soil surface. Liquid applications were made using a backpack sprayer calibrated to deliver 187 liters per hectare (L/ha). Applications were made in Fresno, Calif. in June. Sprinkler irrigation was applied at regular intervals throughout study period. Control of each weed species in the study site was made 4 weeks after treatment. Control was determined visually by comparing treated and untreated weeds and scored on a 0 to 100 percent scale where 0 corresponds to no control and 100 corresponds to complete kill or no emergence.
# [2] = system: wild mustard (SINAR); assay: Pre-emergence orchard floor weeds, greenhouse study; assay type: in vivo, Sinapsis arvense; settings: 28 Days After Application
# Method: (§1) Greenhouse studies were conducted by seeding species in a loam soil and applying the herbicides to the soil surface using a Cornwall 5 milliliter glass syringe fitted with a TeeJet TN-3 nozzle on an area basis Immediately following herbicide application the pots were irrigated over the top to move the herbicides into the seeding zone. Pots were kept well irrigated throughout the trial. A percent visual weed control assessment was taken 4 weeks after application. Control was determined visually by comparing treated and untreated pots and scored on a 0 to 100 percent scale where 0 corresponds to no control and 100 corresponds to complete kill, or no emergence.
# [3] = system: broadleaf weeds and sedges; assay: Weed control in turfgrass and vine and orchard floors (general statement); assay type: in vivo; settings: TRFRE, PLALA, TAROF, PLAMA, GLEHE, LESST, HYDSS, DIQVI, BELPE, CYPES
# [4] = system: Cyperus esculentus (CYPES); assay: Post emergence synergy greenhouse study, penoxsulam + commercial turf granules; assay type: in vivo; settings: 27 Days After Application
# Method: Post emergence greenhouse studies were conducted by applying a 0.14% w/w (weight for weight) penoxsulam loaded urea granule alone and in combination with commercial turf granules. The loading for the commercial granules is listed below Table XI. Greenhouse studies were applied on a kilogram of product per hectare basis (KG PR/Ha) post emergence to broadleaf weeds and sedge reared from seed or nutlet in 12.7″ (32.25 cm) by 8.8″ (22.35 cm) flats of a loam soil. Trial design was replicated block, one species per flat, 4 replicate flats per treatment. Post emergence applications were made to the flat covering both soil and misted foliage using a common hand-shaker method distributing the samples uniformly over the flat. Trial was sub-irrigated daily, and watered over the top 1 time per week starting 7 days after application to simulate a natural rainfall event. Active weed growth was maintained throughout the study period. Weed control was assessed at 2, 3 and 4 weeks after treatment. Control was determined visually by comparing treated and untreated flats and scored on a 0 to 100 percent scale where 0 corresponds to no control and 100 corresponds to complete kill.
# [5] = system: sun spurge (EPHHE); assay: Pre-emergence orchard floor weeds, greenhouse study; assay type: in vivo, Euphorbia helioscopia; settings: 28 Days After Application
# Method: as §1
# [6] = system: white clover (TRFRE); assay: Postemergent granule herbicides, turfgrass field studies; assay type: in vivo, Trifolium repens L.
# Method: (§2) Field studies were conducted in established turfgrass sites containing a natural population of target broadleaf weeds. Replicated trials, containing a minimum of three replications and having individual plots ranging in size from 25 to 50 ft. sq (2.3 to 4.6 square meters), were initiated in the late spring when turf and weeds were actively growing. Granule treatments were uniformly applied to individual plots using a common hand-shaker method. Applications were made in the early morning when dew was present. Natural rainfall and supplemental irrigation were used to maintain healthy turf and active weed growth throughout the study period. Control of each weed species in the study site was made at 2, 4 and 8 weeks after treatment. Control was determined visually by comparing treated and untreated weeds and scored on a 0 to 100 percent scale where 0 corresponds to no control and 100 corresponds to complete kill.
# [7] = system: white clover (TRFRE); assay: Granule carrier/particle size, postemergent field study; assay type: in vivo, Trifolium repens L.
# Method: Greenhouse and field studies evaluated the effect of two granule carriers and two particles sizes on the postemergent broadleaf activity of penoxsulam. The two carriers were a 46-0-0 and 28-4-12 fertilizer blend and the particle sizes averaged 0.75 mm and 2.15 mm.
# as §2
# [8] = system: Virginia buttonweed (DIQVI); assay: Postemergent granule herbicides, turfgrass field studies; assay type: in vivo, Diodia virginiana L.; settings: Table III, 1 site
# Method: as §2
smiles,measurement,setting,value
"COc1cnc(OC)n2nc(NS(=O)(=O)c3c(OCC(F)F)cccc3C(F)(F)F)nc12 [Penoxsulam, 2-(2,2-difluoroethoxy)-N-(5,8-dimethoxy[1,2,4]triazolo[1,5-c]-pyrimidin-2-yl)-6-(trifluoromethyl)benzenesulfonamide]",Pre-emergent Percent Mean Control,[1]; 8.8 gai/Ha,87%
same,Pre-emergent Percent Mean Control,[1]; 17.5 gai/Ha,96%
same,Pre-emergent Percent Mean Control,[1]; 35 gai/Ha,98%
same,Pre-emergent Percent Mean Control,[1]; 70 gai/Ha,100%
same,Pre-emergent Percent Mean Control,[2]; 8.8 gai/Ha,79%
same,Pre-emergent Percent Mean Control,[2]; 17.5 gai/Ha,91%
same,Pre-emergent Percent Mean Control,[2]; 35 gai/Ha,98%
same,Pre-emergent Percent Mean Control,[2]; 70 gai/Ha,98%
same,effectiveness against most important weeds,[3],particularly effective
same,% Control Component A,[4]; 2.4 kg Product/Ha of 0.14% w/w urea granule,16%
same,% Control Component A,[4]; 8.0 kg Product/Ha of 0.14% w/w urea granule,44%
same,Pre-emergent Percent Mean Control,[5]; 8.8 gai/Ha,87%
same,Pre-emergent Percent Mean Control,[5]; 17.5 gai/Ha,97%
same,Pre-emergent Percent Mean Control,[5]; 35 gai/Ha,98%
same,Pre-emergent Percent Mean Control,[5]; 70 gai/Ha,100%
same,Mean Percent Weed Control,"[6]; Table I, 4 Weeks After Treatment, 8 sites, Penoxsulam 140 gai/Ha, Scotts Plus 2 1682+841 gae/Ha, Trimec 1121+516+112 gae/Ha",93%
same,Mean Percent Weed Control,"[6]; Table I, 8 Weeks After Treatment, 7 sites, Penoxsulam 140 gai/Ha, Scotts Plus 2 1682+841 gae/Ha, Trimec 1121+516+112 gae/Ha",94%
same,Mean Percent Weed Control,"[6]; Table III, 4 Weeks After Treatment, 22.4 gai/Ha, 8 sites",85%
same,Mean Percent Weed Control,"[6]; Table III, 4 Weeks After Treatment, 44.9 gai/Ha, 8 sites",94%
same,Mean Percent Weed Control,"[6]; Table III, 4 Weeks After Treatment, 67.3 gai/Ha, 8 sites",96%
same,Mean Percent Weed Control,"[6]; Table III, 4 Weeks After Treatment, 100 gai/Ha, 8 sites",96%
same,Mean Percent Weed Control,"[6]; Table III, 8 Weeks After Treatment, 22.4 gai/Ha, 8 sites",74%
same,Mean Percent Weed Control,"[6]; Table III, 8 Weeks After Treatment, 44.9 gai/Ha, 8 sites",88%
same,Mean Percent Weed Control,"[6]; Table III, 8 Weeks After Treatment, 67.3 gai/Ha, 8 sites",91%
same,Mean Percent Weed Control,"[6]; Table III, 8 Weeks After Treatment, 100 gai/Ha, 8 sites",97%
same,Percent Weed Control 26-27 DAA,"[7]; carrier 28-4-12, particle size 0.75 mm, 11.2 gai/Ha",80%
same,Percent Weed Control 26-27 DAA,"[7]; carrier 28-4-12, particle size 0.75 mm, 22.4 gai/Ha",97%
same,Percent Weed Control 26-27 DAA,"[7]; carrier 28-4-12, particle size 2.15 mm, 11.2 gai/Ha",48%
same,Percent Weed Control 26-27 DAA,"[7]; carrier 28-4-12, particle size 2.15 mm, 22.4 gai/Ha",70%
same,Percent Weed Control 26-27 DAA,"[7]; carrier 46-0-0, particle size 0.75 mm, 11.2 gai/Ha",82%
same,Percent Weed Control 26-27 DAA,"[7]; carrier 46-0-0, particle size 0.75 mm, 22.4 gai/Ha",95%
same,Percent Weed Control 26-27 DAA,"[7]; carrier 46-0-0, particle size 2.15 mm, 11.2 gai/Ha",34%
same,Percent Weed Control 26-27 DAA,"[7]; carrier 46-0-0, particle size 2.15 mm, 22.4 gai/Ha",78%
same,Mean Percent Weed Control,"[8]; 4 Weeks After Treatment, 22.4 gai/Ha",67%
same,Mean Percent Weed Control,"[8]; 4 Weeks After Treatment, 44.9 gai/Ha",76%
same,Mean Percent Weed Control,"[8]; 4 Weeks After Treatment, 67.3 gai/Ha",93%
same,Mean Percent Weed Control,"[8]; 4 Weeks After Treatment, 100 gai/Ha",92%
same,Mean Percent Weed Control,"[8]; 8 Weeks After Treatment, 22.4 gai/Ha",48%
same,Mean Percent Weed Control,"[8]; 8 Weeks After Treatment, 44.9 gai/Ha",63%
same,Mean Percent Weed Control,"[8]; 8 Weeks After Treatment, 67.3 gai/Ha",87%
same,Mean Percent Weed Control,"[8]; 8 Weeks After Treatment, 100 gai/Ha",78%
